From the OPERA property sets (Mansouri et al. 2018)

Conditions: for log10 BCF / log10 biotransformation half-life (days): fish

CC(Br)C(=O)O (stereo unspecified)
boiling point: 203 °C

CCc1ccc([N+](=O)[O-])cc1
boiling point: 246 °C | melting point: -12.3 °C

ClC1C(Br)C(Br)C(Br)C(Br)C1Br (stereo unspecified)
ready biodegradability: not readily biodegradable | log10 BCF: 2.41 | log10 biotransformation half-life (days): -0.31

CC(C)=CC1C(C(=O)OCc2cccc(Oc3ccccc3)c2)C1(C)C (stereo unspecified)
log10 vapour pressure (mmHg): -6.84

CCc1nc2ccccc2[nH]1
melting point: 175 °C

CCCCC(=O)OCc1ccco1
boiling point: 228 °C

O=C(O)c1ccc(F)cc1F
melting point: 189 °C

c1ccc(COCc2ccccc2)cc1
boiling point: 298 °C | log10 vapour pressure (mmHg): -2.99 | melting point: 3.6 °C | ready biodegradability: not readily biodegradable | log10 BCF: 2.43 | log10 biotransformation half-life (days): 0.63

CCCCCCCCCCCCN1CC(C(=O)O)CC1=O (stereo unspecified)
melting point: 39 °C

O=[N+]([O-])c1cccc(C(F)(F)F)c1
boiling point: 203 °C | log10 vapour pressure (mmHg): -0.587 | melting point: -2.4 °C

CC1CCSCC1
boiling point: 159 °C | melting point: -28 °C

CC(=O)C1(O)CCCCC1
boiling point: 126 °C

FC(F)C(F)(F)OCC(Cn1cncn1)c1ccc(Cl)cc1Cl (stereo unspecified)
log10 vapour pressure (mmHg): -5.87 | melting point: 6 °C | log10 biotransformation half-life (days): 1.23

C=COC(=O)C(C)C
boiling point: 104 °C

Cc1cnc2ccccc2c1
boiling point: 260 °C | melting point: 16.5 °C

O=C(Cl)OCCOCCOC(=O)Cl
boiling point: 229 °C | log10 vapour pressure (mmHg): -2.83

CCCc1cccc2ccccc12
boiling point: 274 °C | melting point: -8.6 °C

N#Cc1cc[n+]([O-])cc1
melting point: 224 °C

Cc1c2ccncc2c(C)c2c1[nH]c1ccccc12
melting point: 313 °C

CC(C)c1ccc2ccccc2c1
boiling point: 268 °C | log10 vapour pressure (mmHg): -2.29 | melting point: 14.5 °C | log10 biotransformation half-life (days): 1

Nc1ccccn1
boiling point: 211 °C | melting point: 57.5 °C | ready biodegradability: not readily biodegradable | log10 BCF: 1.06

CC(C)(C)C(=O)O
boiling point: 164 °C | log10 Henry constant (atm·m³/mol): -5.56 | log10 vapour pressure (mmHg): -0.301 | melting point: 35 °C | ready biodegradability: not readily biodegradable | log10 BCF: 0.36

Oc1ccc2c(O)c3ccccc3cc2c1O
melting point: 208 °C

COc1cc(Cl)cc(OC)c1
boiling point: 234 °C | melting point: 35 °C

CC(=O)NC(=O)c1ccccc1O
melting point: 148 °C

O=C(NC(=O)c1c(F)cccc1F)Nc1cc(Cl)c(F)c(Cl)c1F
log10 vapour pressure (mmHg): -11.2 | melting point: 222 °C

CC(C)C1=CC(O)C(C)CC1 (stereo unspecified)
boiling point: 220 °C

COc1cccc(F)c1
boiling point: 159 °C | melting point: -35 °C

CC(C)N(CCC(C(N)=O)(c1ccccc1)c1ccccn1)C(C)C (stereo unspecified)
melting point: 94.8 °C

CCCC
log10 Koa: 1.53 | log10 vapour pressure (mmHg): 3.26 | melting point: -138 °C | ready biodegradability: readily biodegradable

Cc1cc(C(C)(C)C)cc(C(C)(C)C)c1O
boiling point: 269 °C | melting point: 51 °C

CN(C)C(=O)C(c1ccccc1)c1ccccc1
log10 Koc (L/kg): 2.32 | log10 vapour pressure (mmHg): -7.52 | melting point: 135 °C

CC1CCCCCC1
boiling point: 134 °C

ON=C1CCCC1
boiling point: 196 °C | melting point: 57.8 °C

O=C1CCc2ccccc2C1
boiling point: 237 °C | melting point: 18 °C

NCCCN1CCOCC1
boiling point: 220 °C | melting point: -15 °C

Nc1ccc(S)cc1
melting point: 46 °C

Cc1cc(C)cc(-c2ccccc2)c1
boiling point: 274 °C | melting point: 22.5 °C

CC=C(C)CC
boiling point: 69 °C | log10 vapour pressure (mmHg): 2.2 | melting point: -137 °C

CCOC
boiling point: 7.4 °C | log10 vapour pressure (mmHg): 3.17 | melting point: -113 °C

Cc1ccccc1-c1ccccc1
boiling point: 256 °C | melting point: -0.2 °C

FC(F)(F)C(Cl)C(F)(F)F
boiling point: 14.1 °C | melting point: -120 °C

C=C(C)C(=O)O
boiling point: 163 °C | log10 Henry constant (atm·m³/mol): -6.41 | log10 vapour pressure (mmHg): -0.0044 | melting point: 16 °C | ready biodegradability: readily biodegradable

CC1CCCCC1(C)C (stereo unspecified)
boiling point: 145 °C | melting point: -29 °C

CCCOC(=O)c1ccc(O)cc1
melting point: 97 °C

O=S(=O)(Cl)C(Cl)(Cl)Cl
boiling point: 170 °C | melting point: 140 °C

BrC[C@@H]1CCCO1
boiling point: 170 °C

C[Si]1(C)O[Si](C)(C)O[Si](C)(C)O[Si](C)(C)O1
boiling point: 176 °C | log10 Henry constant (atm·m³/mol): 1.08 | log10 vapour pressure (mmHg): 0.0212 | melting point: 17.5 °C | log10 biotransformation half-life (days): 1.88

OCC(S)CS (stereo unspecified)
log10 vapour pressure (mmHg): -2.3

O=C(O)C(c1ccccc1)c1ccccc1
melting point: 147 °C

CCN(C(C)=O)c1ccccc1
boiling point: 260 °C | melting point: 55 °C

CCC(O)CCl (stereo unspecified)
boiling point: 141 °C

CCCCN(C(C)=O)c1ccccc1
boiling point: 281 °C | melting point: 24.5 °C

O=C1CCCN1CCO
boiling point: 295 °C | melting point: 20 °C

CN1c2ccccc2Sc2ccc(CC(=O)O)cc21
melting point: 144 °C

O=[n+]1[n-]c(-n2ccnc2)nc2ccc(Cl)cc21
log10 vapour pressure (mmHg): -8.65 | melting point: 182 °C

C=C(C)C(=O)OC
boiling point: 100 °C | log10 vapour pressure (mmHg): 1.59 | melting point: -48 °C | ready biodegradability: readily biodegradable

OCc1cccs1
boiling point: 207 °C
